Data published in US20090176817A1, “Method of Treatment of Diarrhea-Predominant Irritable Bowel Syndrome in a Subject” (priority 2005, published 2009).

Tested on: diarrhea-predominant IBS subjects
Experiment: Study S241.3.009: weekly diary questions on adequate relief
Type: in vivo, human
Details: ITT, 2 mg TID; for Number of months a subject was a responder: Three months (IBS symptoms) / Number of months a subject was a responder: Two months (Abdominal pain/discomfort) / Number of months a subject was a responder: Two months (Abnormal bowel habits) / Number of months a subject was a responder: Two months (IBS symptoms) / Number of months a subject was a responder: Zero months (Abdominal pain/discomfort) / Number of months a subject was a responder: Zero months (Abnormal bowel habits) / Number of months a subject was a responder: Zero months (IBS symptoms) / Number of months a subject was a responder: One month (Abdominal pain/discomfort) / Number of months a subject was a responder: One month (Abnormal bowel habits) / Number of months a subject was a responder: One month (IBS symptoms) / Number of months a subject was a responder: Three months (Abdominal pain/discomfort) / Number of months a subject was a responder: Three months (Abnormal bowel habits): Months 1 to 3, monthly LOCF; for Overall responder rate, adequate relief of IBS symptoms / Overall responder rate, adequate relief of abdominal pain/discomfort / Overall responder rate, adequate relief of abnormal bowel habits: 26-week treatment period, observed case
Protocol: Study S241.3.009 was a Phase III, a double-blind, placebo-controlled, randomized, multinational study to investigate the safety and efficacy of 2 mg TID of cilansetron over 26 weeks in diarrhea-predominant IBS subjects. The study was conducted in 146 multinational study centers. A total of 1307 subjects consented to participate, and 806 subjects were randomized. A total of 792 subjects were analyzed for efficacy and 799 subjects were analyzed for safety. Diagnosis and main criteria for inclusion were IBS subjects satisfying the Rome I criteria (1992); the diarrhea-predominant sub-population of the Rome II criteria; and a minimum abdominal pain/discomfort, stool frequency and consistency determined during the run-in period. Subjects were treated with cilansetron 2 mg tablets given orally TID or matching placebo tablets given orally TID for 26 weeks.
The primary efficacy parameter was the overall response rate for IBS symptoms, based on the weekly question concerning adequate relief of IBS symptoms (abdominal pain/discomfort, abnormal bowel habits) over the 26 weeks period. A responder was a subject who responded “yes” at least 50% of the time during his/her treatment period, with minimum treatment duration of four weeks. The two main secondary efficacy parameters were overall responder rate based on the weekly question on adequate relief of abdominal pain/discomfort and abnormal bowel habits during the 26-week treatment period. The onset of action of cilansetron was also examined using daily diary data (stool frequency, and ratings of urgency and severity) during the initial 8 weeks of trial participation. An additional key secondary efficacy parameter was the number of months (one month equals four weeks) up to six months (24-weeks) that a subject was a responder for IBS symptoms, where a responder was defined as a subject who answered the weekly question with “yes” at least twice for that month. The responder rate for the weekly diary questions on adequate relief at each month and all months, the adequate relief rate, the number of subjects with adequate relief by week, daily diary questions, IBS-QOL scores, and the interruption of activities were also assessed. Safety was evaluated by physical examination, ECG, vital signs, laboratory evaluations, concomitant medications, and AEs.
Studies S24 1.3.OO6, S24 1.3.0 1 1, and S24 1.3.009 used the following efficacy measurements: • The subjects answered the following three questions with “yes” or “no” using a phone diary at the end of each week: • a) During the last week, did you experience adequate relief of your IBS symptoms, such as abdominal pain, abdominal discomfort, abnormal bowel habits? • b) During the last week, did you experience adequate relief of your abdominal pain and/or discomfort? • c) During the last week, did you experience adequate relief of your abnormal bowel habits? • The subjects rated the following symptoms using the phone diary at the end of each day: • abdominal pain/discomfort (five-point scale); • stool consistency (seven-point Bristol Stool Scale); • stool frequency (number of bowel movements each day); • urgency (five-point scale); • straining (yes or no); • feeling of incomplete defecation (yes or no); • bloating or feeling of abdominal distension (five-point scale). • In Studies S241 A006 and S241.3.009, subjects completed the IBS-QOL Survey at Baseline (Day 1) and at the end of treatment. In Study S24 1.3.0 1 1, subjects completed the IBS-QOL Survey at Baseline (Day 1), at the end of the three-month treatment period, and at the end of rerandomized treatment.
In all three pivotal efficacy studies, the primary and main secondary efficacy parameters were based on the weekly diary questions on adequate relief and included the following: • 1. Number of months (one month equals four weeks) that a subject was a responder for the weekly diary questions on adequate relief. […]

[1] = Baseline severity of IBS: non-severe
[2] = Baseline severity of IBS: severe
[3] = Duration of IBS: >24 months to ≦48 months, monthly LOCF imputation

Cc1nccn1C[C@H]1CCc2c(c3cccc4c3n2CCC4)C1=O [Cilansetron, (R)-(−)-4,5,6,8,9,10-hexahydro-10-[(2-methyl-1H-imidazol-1-yl)methyl]-11H-pyrido-[3,2,1-jk]-carbazol-11-one]
Number of months a subject was a responder: Three months (IBS symptoms) (Baseline BMI: <30 kg/m^2): 131 (40) n (%)
Number of months a subject was a responder: Two months (Abdominal pain/discomfort) (Baseline BMI: <30 kg/m^2): 58 (18) n (%)
Number of months a subject was a responder: Two months (Abnormal bowel habits) (Baseline BMI: <30 kg/m^2): 69 (21) n (%)
Number of months a subject was a responder: Two months (IBS symptoms) (Baseline BMI: <30 kg/m^2): 64 (19) n (%)
Number of months a subject was a responder: Zero months (Abdominal pain/discomfort) (Baseline BMI: <30 kg/m^2): 82 (25) n (%)
Number of months a subject was a responder: Zero months (Abnormal bowel habits) (Baseline BMI: <30 kg/m^2): 78 (24) n (%)
Number of months a subject was a responder: Zero months (IBS symptoms) (Baseline BMI: <30 kg/m^2): 86 (26) n (%)
Overall responder rate, adequate relief of IBS symptoms (Baseline BMI: ≧30 kg/m^2): 27 (42) n (%)
Overall responder rate, adequate relief of abdominal pain/discomfort (Baseline BMI: ≧30 kg/m^2): 32 (49) n (%)
Overall responder rate, adequate relief of abnormal bowel habits (Baseline BMI: ≧30 kg/m^2): 33 (51) n (%)
Number of months a subject was a responder: One month (Abdominal pain/discomfort) (Baseline BMI: ≧30 kg/m^2): 10 (15) n (%)
Number of months a subject was a responder: One month (Abnormal bowel habits) (Baseline BMI: ≧30 kg/m^2): 10 (15) n (%)
Number of months a subject was a responder: One month (IBS symptoms) (Baseline BMI: ≧30 kg/m^2): 6 (9) n (%)
Number of months a subject was a responder: Three months (Abdominal pain/discomfort) (Baseline BMI: ≧30 kg/m^2): 20 (31) n (%)
Number of months a subject was a responder: Three months (Abnormal bowel habits) (Baseline BMI: ≧30 kg/m^2): 21 (32) n (%)
Number of months a subject was a responder: Three months (IBS symptoms) (Baseline BMI: ≧30 kg/m^2): 19 (29) n (%)
Number of months a subject was a responder: Two months (Abdominal pain/discomfort) (Baseline BMI: ≧30 kg/m^2): 12 (18) n (%)
Number of months a subject was a responder: Two months (Abnormal bowel habits) (Baseline BMI: ≧30 kg/m^2): 14 (22) n (%)
Number of months a subject was a responder: Two months (IBS symptoms) (Baseline BMI: ≧30 kg/m^2): 16 (25) n (%)
Number of months a subject was a responder: Zero months (Abdominal pain/discomfort) (Baseline BMI: ≧30 kg/m^2): 23 (35) n (%)
Number of months a subject was a responder: Zero months (Abnormal bowel habits) (Baseline BMI: ≧30 kg/m^2): 20 (31) n (%)
Number of months a subject was a responder: Zero months (IBS symptoms) (Baseline BMI: ≧30 kg/m^2): 24 (37) n (%)
Overall responder rate, adequate relief of IBS symptoms [1]: 149 (61) n (%)
Overall responder rate, adequate relief of abdominal pain/discomfort [1]: 150 (61) n (%)
Overall responder rate, adequate relief of abnormal bowel habits [1]: 161 (65) n (%)
Number of months a subject was a responder: One month (Abdominal pain/discomfort) [1]: 42 (17) n (%)
Number of months a subject was a responder: One month (Abnormal bowel habits) [1]: 31 (13) n (%)
Number of months a subject was a responder: One month (IBS symptoms) [1]: 37 (15) n (%)
Number of months a subject was a responder: Three months (Abdominal pain/discomfort) [1]: 102 (41) n (%)
Number of months a subject was a responder: Three months (Abnormal bowel habits) [1]: 104 (42) n (%)
Number of months a subject was a responder: Three months (IBS symptoms) [1]: 95 (39) n (%)
Number of months a subject was a responder: Two months (Abdominal pain/discomfort) [1]: 41 (17) n (%)
Number of months a subject was a responder: Two months (Abnormal bowel habits) [1]: 54 (22) n (%)
Number of months a subject was a responder: Two months (IBS symptoms) [1]: 51 (21) n (%)
Number of months a subject was a responder: Zero months (Abdominal pain/discomfort) [1]: 61 (25) n (%)
Number of months a subject was a responder: Zero months (Abnormal bowel habits) [1]: 57 (23) n (%)
Number of months a subject was a responder: Zero months (IBS symptoms) [1]: 63 (26) n (%)
Overall responder rate, adequate relief of IBS symptoms [2]: 84 (57) n (%)
Overall responder rate, adequate relief of abdominal pain/discomfort [2]: 88 (59) n (%)
Overall responder rate, adequate relief of abnormal bowel habits [2]: 91 (61) n (%)
Number of months a subject was a responder: One month (Abdominal pain/discomfort) [2]: 19 (13) n (%)
Number of months a subject was a responder: One month (Abnormal bowel habits) [2]: 18 (12) n (%)
Number of months a subject was a responder: One month (IBS symptoms) [2]: 18 (12) n (%)
Number of months a subject was a responder: Three months (Abdominal pain/discomfort) [2]: 56 (38) n (%)
Number of months a subject was a responder: Three months (Abnormal bowel habits) [2]: 60 (41) n (%)
Number of months a subject was a responder: Three months (IBS symptoms) [2]: 54 (36) n (%)
Number of months a subject was a responder: Two months (Abdominal pain/discomfort) [2]: 29 (20) n (%)
Number of months a subject was a responder: Two months (Abnormal bowel habits) [2]: 29 (20) n (%)
Number of months a subject was a responder: Two months (IBS symptoms) [2]: 29 (20) n (%)
Number of months a subject was a responder: Zero months (Abdominal pain/discomfort) [2]: 44 (30) n (%)
Number of months a subject was a responder: Zero months (Abnormal bowel habits) [2]: 41 (28) n (%)
Number of months a subject was a responder: Zero months (IBS symptoms) [2]: 47 (32) n (%)
Number of months a subject was a responder during Months 1 to 3: Abdominal pain/discomfort, One month [3]: 14 (15) n (%)
Number of months a subject was a responder during Months 1 to 3: Abdominal pain/discomfort, Three months [3]: 37 (39) n (%)
Number of months a subject was a responder during Months 1 to 3: Abdominal pain/discomfort, Two months [3]: 19 (20) n (%)
Number of months a subject was a responder during Months 1 to 3: Abdominal pain/discomfort, Zero months [3]: 26 (27) n (%)
Number of months a subject was a responder during Months 1 to 3: Abnormal bowel habits, One month [3]: 11 (11) n (%)
Number of months a subject was a responder during Months 1 to 3: Abnormal bowel habits, Three months [3]: 36 (38) n (%)
Number of months a subject was a responder during Months 1 to 3: Abnormal bowel habits, Two months [3]: 25 (26) n (%)
Number of months a subject was a responder during Months 1 to 3: Abnormal bowel habits, Zero months [3]: 24 (25) n (%)
